Reference: patent publication US20030134264A1, “Method of preventing darkening of skin or inhibiting melanization of melenin monomer and polymerization inhibitor of biological dihydroxyindole compound” (SHISEIDO COMPANY, LTD., priority 2001, published 2003)

Test: Inhibition of melanization of DHICA by ultraviolet rays (absorbance at 405 nm, microplate)
Details: FL-20BLB fluorescent lamp, long wavelength UV, absorbance 405 nm
Experimental: DHICA can be synthesized by a known method. 0.01 to 1.0 mg/ml of DHICA or its sodium salt is dissolved in water or a buffer such as phosphate buffer and 100 to 200 μl amounts distributed into microplate wells. A fluorescent lamp or solar simulator or monochrometer is used to irradiate this with ultraviolet rays for 10 minutes to 3 hours, then the absorbance at 405 nm is measured by a microplate reader to evaluate the amount of black-brown melanin.
0.01 to 1.0 mg/ml of DHICA or its sodium salt is dissolved in water or a buffer such as a phosphate buffer and 100 to 200 μl amounts distributed into microplate wells. Compounds or plant extracts prepared at various concentrations are added in 1 to 100 μl amounts or before addition a fluorescent lamp or solar simulator or monochrometer is used to irradiate this with ultraviolet rays for 10 minutes to 3 hours, then the absorbance of 405 nm is measured by a microplate reader to evaluate the extent of black-brown melanin and evaluate the effect of the compound or plant extract.
The action of an inhibitor containing vitamin C and its derivatives as effective ingredients in inhibiting melanization of DHICA due to ultraviolet rays was evaluated by the following effect of inhibition of melanization of DHICA due to ultraviolet rays.
(§1) 0.01 to 1.0 mg/ml of DHICA or its sodium salt is dissolved in water and 100 μl amounts distributed into microplate wells. 100 μl of ascorbic acid or its derivative adjusted to various concentrations was added and an FL-20BLB fluorescent lamp used to irradiate long wavelength ultraviolet rays. The absorbance at 405 nm was measured by a microplate reader to evaluate the amount of black-brown melanin and evaluate the effect of the compound.
as §1, with “The action of an inhibitor containing 3-O-ethyl ascorbic acid as effective ingredients in inhibiting melanization of DHICA due to ultraviolet rays was evaluated by the following effect of inhibition of melanization of DHICA due to ultraviolet rays. 0.01” for “0.01”, “the extent” for “the amount”

Compound	Rate of inhibition of UV-introduced melanization of DHICA (%) (sample concentration 0.01%)	Rate of suppression of UV-induced melanization of DHICA (%) (sample concentration 0.01%)	Rate of inhibition of UV-introduced melanization of DHICA (%) (sample concentration 0.1%)	Rate of suppression of UV-induced melanization of DHICA (%) (sample concentration 0.1%)
CCOC1=C(O)C(=O)O[C@@H]1[C@@H](O)CO [3-O-ethyl ascorbic acid]	40	40	80	80
O=C1O[C@H]([C@@H](O)CO)C(O)=C1O[C@H]1O[C@H](CO)[C@@H](O)[C@H](O)[C@H]1O [AA-2G, Ascorbate-2-O-α-glucoside]			20	20
O=C1O[C@H]([C@@H](O)CO)C([O-])=C1OP(=O)([O-])[O-].O=C1O[C@H]([C@@H](O)CO)C([O-])=C1OP(=O)([O-])[O-].[Mg+2].[Mg+2].[Mg+2] [APM, Magnesium ascorbate phosphate ester]			20	
O=C1O[C@H]([C@@H](O)CO)C(O)=C1O [Ascorbic acid]			70	70
